Reference: patent publication US11701364B2, “Agonists of stimulator of interferon genes sting” (The Scripps Research Institute, priority 2018, dated 2023)

Biological target: T1, STING (Stimulator of Interferon Genes) (Homo sapiens, UniProt Q86WV6, G230A/H232R/R293Q/R71H)
T1 construct: host or cells: THP-1-Lucia ISG cells (human monocytic line)
Assay: ISG-LUC activation assay (ISRE-Luciferase assay in THP-1 Lucia ISG reporter cells)
Format: cell-based
Settings: THP-1 Lucia ISG cells, 24 hours, luciferase reporter; read-out: ISG-LUC activation assay (EC50)
Source text: This has been established using a primary assay involving a human THP-1 cell line carrying an IRF-inducible reporter with 5 copies of the IFN signaling response element. Counter screens, involving alternative reporter constructs, rodent cell-based assays, as well as cGAS and STING knock-out cell lines, are used to eliminate luciferase artifacts and ensure human-rodent cross species reactivity, as well as pathway selectivity. Biochemical assays, involving cGAS enzymatic activity and STING protein binding assays, are used to identify the specific target of identified hits.
THP-1 Lucia ISG cells were resuspended in low-serum growth media (2% FBS) at a density of 5×10^5 cells/ml and treated with test article or vehicle (DMSO). 50 μL of cells were seeded into each well of a 384-well white greiner plates and incubated for 24 hours. To evaluate expression of the luciferase reporter, 30 μl of Quanti-luc (Invivogen) detection reagent was added to each well and luminescence was read using an Envision plate reader (Perkin Elmer) set with an integration time of 0.1 seconds.

T1 sequence (Q86WV6 whole entry R71H/G230A/H232R/R293Q): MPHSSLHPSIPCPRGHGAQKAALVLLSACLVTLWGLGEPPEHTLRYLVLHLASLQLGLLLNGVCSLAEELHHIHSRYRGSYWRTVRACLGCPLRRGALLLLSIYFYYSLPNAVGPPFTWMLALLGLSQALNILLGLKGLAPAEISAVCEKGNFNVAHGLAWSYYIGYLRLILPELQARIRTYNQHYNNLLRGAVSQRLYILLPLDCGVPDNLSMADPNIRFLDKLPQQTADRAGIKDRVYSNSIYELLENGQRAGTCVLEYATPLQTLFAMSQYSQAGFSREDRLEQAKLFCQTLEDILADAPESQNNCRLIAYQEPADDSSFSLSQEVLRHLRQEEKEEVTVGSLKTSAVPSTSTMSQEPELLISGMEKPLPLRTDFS

SMILES: COC(=O)c1cc2c(cc1NC(=O)c1ccc(-n3ccnc3)nn1)OCO2 [Compound 98]
- EC50: 2680 nM

SMILES: O=c1oc(-c2ccc(-n3ccnc3)nn2)nc2cc(Cl)c(Cl)cc12 [Compound 35]
- EC50: 61.7 nM

SMILES: COC(=O)c1cc(C2CC2)ccc1NC(=O)c1ccc(-n2ccnc2)nn1 [Compound 32]
- EC50: 359 nM

SMILES: O=C(Nc1ccccc1C(O)(C(F)(F)F)C(F)(F)F)c1ccc(-n2ccnc2)nn1 [Compound 1]
- EC50: 593 nM

SMILES: O=C(Nc1cc(C(F)(F)F)ccc1C(=O)O)c1ccc(-n2ccnc2)nn1 [Compound 86]
- EC50: 10300 nM

SMILES: COC(=O)c1cc(OC)c(F)cc1NC(=O)c1ccc(-n2ccnc2)nn1 [Compound 28]
- EC50: 95.8 nM

SMILES: COC(=O)c1cc(F)c(OC)c(F)c1NC(=O)c1ccc(-n2ccnc2)nn1 [Compound 59]
- EC50: 780 nM

SMILES: COC(=O)c1cnccc1NC(=O)c1ccc(-n2ccnc2)nn1 [Compound 108]
- EC50: 3350 nM

SMILES: O=C(Nc1cc(Cl)nnc1C(=O)O)c1ccc(-n2ccnc2)nn1 [Compound 157]
- EC50: > 50000 nM

SMILES: O=C(Nc1ccc2ccccc2c1C(O)(C(F)(F)F)C(F)(F)F)c1ccc(-n2ccnc2)nn1 [Compound 121]
- EC50: 1830 nM

SMILES: COC(=O)c1cccc(Cl)c1NC(=O)c1ccc(-n2ccnc2)nn1 [Compound 96]
- EC50: 21100 nM

SMILES: CN(O)C(=O)c1cc(F)c(F)cc1NC(=O)c1ccc(-n2ccnc2)nn1 [Compound 147]
- EC50: 5250 nM

SMILES: COC(=O)c1cc(F)c(C)cc1NC(=O)c1ccc(-n2ccnc2)nn1 [Compound 21]
- EC50: 90.4 nM

SMILES: COC(=O)c1cc(Cl)c(Br)c(F)c1NC(=O)c1ccc(-n2ccnc2)nn1 [Compound 60]
- EC50: 62.2 nM

SMILES: COC(=O)c1cc2ccccc2cc1NC(=O)c1ccc(-n2ccnc2)nn1 [Compound 23]
- EC50: 56.1 nM

SMILES: O=C(Nc1cc(F)c(F)cc1C(=O)NCCO)c1ccc(-n2ccnc2)nn1 [Compound 122]
- EC50: 7960 nM

SMILES: COc1ccc(C(=O)O)c(NC(=O)c2ccc(-n3ccnc3)nn2)c1 [Compound 62]
- EC50: 1460 nM

SMILES: N=C(N)NCCC[C@H](NC(=O)c1cc(F)c(F)cc1NC(=O)c1ccc(-n2ccnc2)nn1)C(N)=O [Compound 124]
- EC50: 8080 nM

SMILES: O=C(Nc1cc(Cl)c(Cl)cc1C(=O)O)c1ccc(-n2ccnc2)nn1 [Compound 103]
- EC50: 451 nM

SMILES: COC(=O)c1ccc(F)c(C)c1NC(=O)c1ccc(-n2ccnc2)nn1 [Compound 2]
- EC50: 4690 nM

SMILES: CCOC(=O)c1nc2ccccc2cc1NC(=O)c1ccc(-n2ccnc2)nn1 [Compound 153]
- EC50: 43 nM

SMILES: COc1ccc(NC(=O)c2ccc(-n3ccnc3)nn2)c(C(=O)O)c1 [Compound 151]
- EC50: 7760 nM

SMILES: O=C(Nc1cc(F)c(OC(F)F)cc1C(=O)O)c1ccc(-n2ccnc2)nn1 [Compound 84]
- EC50: 8590 nM

SMILES: CCCc1ccc(NC(=O)c2ccc(-n3ccnc3)nn2)c(C(=O)O)c1 [Compound 171]
- EC50: > 20000 nM

SMILES: Cc1cc(C(=O)O)c(NC(=O)c2ccc(-n3ccnc3)nn2)cc1C(F)(F)F [Compound 102]
- EC50: 12100 nM

SMILES: COC(=O)c1cc(C)c(Cl)cc1NC(=O)c1ccc(-n2ccnc2)nn1 [Compound 61]
- EC50: 124 nM

SMILES: O=C(Nc1cc2ccccc2cc1C(=O)O)c1ccc(-n2ccnc2)nn1 [Compound 78]
- EC50: 4440 nM

SMILES: COC(=O)c1cc(F)c(C)nc1NC(=O)c1ccc(-n2ccnc2)nn1 [Compound 149]
- EC50: 30100 nM

SMILES: O=c1oc(-c2ccc(-n3ccnc3)nn2)nc2ccc(OC(F)(F)F)cc12 [Compound 41]
- EC50: 176 nM

SMILES: COC(=O)c1cc(F)ccc1NC(=O)c1ccc(-n2ccnc2)nn1 [Compound 13]
- EC50: 249 nM

SMILES: Cc1noc(-c2ccccc2NC(=O)c2ccc(-n3ccnc3)nn2)n1 [Compound 7]
- EC50: > 50000 nM

SMILES: O=C(O)C1=C(NC(=O)c2ccc(-n3ccnc3)nn2)CCCC1 [Compound 130]
- EC50: 14800 nM

SMILES: CCOC(=O)C1=C(NC(=O)c2ccc(-n3ccnc3)nn2)C[C@@H](C)O[C@H]1C [Compound 135]
- EC50: 12300 nM

SMILES: COC(=O)c1cc2[nH]ncc2cc1NC(=O)c1ccc(-n2ccnc2)nn1 [Compound 117]
- EC50: ~2570 nM

SMILES: COC(=O)c1nc(OC)ccc1NC(=O)c1ccc(-n2ccnc2)nn1 [Compound 74]
- EC50: 1360 nM

SMILES: NC(=O)c1cc(F)c(F)cc1NC(=O)c1ccc(-n2ccnc2)nn1 [Compound 63]
- EC50: 2640 nM

SMILES: O=c1oc(-c2ccc(-n3ccnc3)nn2)nc2ccc(C(F)(F)F)nc12 [Compound 140]
- EC50: ~25100 nM

SMILES: COC(=O)c1ccc(F)c(F)c1NC(=O)c1ccc(-n2ccnc2)nn1 [Compound 18]
- EC50: 568 nM

SMILES: O=c1oc(-c2ccc(-n3ccnc3)nn2)nc2ccc(S(F)(F)(F)(F)F)cc12 [Compound 161]
- EC50: > 20000 nM

SMILES: Cc1ccc(C(=O)OC(C)C)c(NC(=O)c2ccc(-n3ccnc3)nn2)c1 [Compound 66]
- EC50: 518 nM

SMILES: COC(=O)c1ccc(C(F)(F)F)cc1NC(=O)c1ccc(-n2ccnc2)nn1 [Compound 27]
- EC50: 136 nM

SMILES: COC(=O)c1cc(F)c(C2CC2)cc1NC(=O)c1ccc(-n2ccnc2)nn1 [Compound 56]
- EC50: 302 nM

SMILES: O=C(Nc1cc(F)c(OC(F)(F)F)cc1C(=O)O)c1ccc(-n2ccnc2)nn1 [Compound 146]
- EC50: 2180 nM

SMILES: COC(=O)c1cc(OC(F)(F)F)c(F)cc1NC(=O)c1ccc(-n2ccnc2)nn1 [Compound 44]
- EC50: 573 nM

SMILES: COC(=O)c1ccccc1NC(=O)c1ccc(-n2cnc(C)c2)nn1 [Compound 93]
- EC50: > 20000 nM

SMILES: COC(=O)c1cc(F)c(F)cc1NC(=O)c1ccc(-n2ccnc2)nn1 [Compound 107]
- EC50: 415 nM

SMILES: CCOC(=O)c1nc(C)ccc1NC(=O)c1ccc(-n2ccnc2)nn1 [Compound 30]
- EC50: 149 nM

SMILES: COC(=O)C1=C(NC(=O)c2ccc(-n3ccnc3)nn2)CC(C)(C)C1 [Compound 77]
- EC50: > 50000 nM

SMILES: CCOC(=O)C1=C(NC(=O)c2ccc(-n3ccnc3)nn2)CCOC1 [Compound 128]
- EC50: 4350 nM

SMILES: COC(=O)c1cc(Cl)ccc1NC(=O)c1ccc(-n2ccnc2)nn1 [Compound 106]
- EC50: 346 nM

SMILES: Cc1ccc(NC(=O)c2ccc(-n3ccnc3)nn2)c(C(=O)O)c1 [Compound 89]
- EC50: > 20000 nM

SMILES: CCOC(=O)C1=C(NC(=O)c2ccc(-n3ccnc3)nn2)CCC(C)C1 (stereo not shown) [Compound 67]
- EC50: 2950 nM

SMILES: O=C(Nc1ccc(C(F)(F)F)cc1C(=O)O)c1ccc(-n2ccnc2)nn1 [Compound 90]
- EC50: > 20000 nM

SMILES: COC(=O)c1cc(C)c(F)cc1NC(=O)c1ccc(-n2ccnc2)nn1 [Compound 50]
- EC50: 145 nM

SMILES: CCOC(=O)C1=C(NC(=O)c2ccc(-n3ccnc3)nn2)C2CCC1O2 (stereo not shown) [Compound 155]
- EC50: > 50000 nM

SMILES: COC(=O)c1cc(C)c(C)cc1NC(=O)c1ccc(-n2ccnc2)nn1 [Compound 11]
- EC50: 103 nM

SMILES: COC(=O)c1ccncc1NC(=O)c1ccc(-n2ccnc2)nn1 [Compound 8]
- EC50: 2570 nM

SMILES: O=c1[nH]c(-c2ccc(-n3ccnc3)nn2)nc2cc(F)c(F)cc12 [Compound 126]
- EC50: 1120 nM

SMILES: COC(=O)C1=C(NC(=O)c2ccc(-n3ccnc3)nn2)CC(C)(C)OC1 [Compound 136]
- EC50: 8840 nM

SMILES: COC(=O)c1cc(F)cc(C)c1NC(=O)c1ccc(-n2ccnc2)nn1 [Compound 175]
- EC50: ~2810 nM

SMILES: COC(=O)c1cc(C#N)ccc1NC(=O)c1ccc(-n2ccnc2)nn1 [Compound 49]
- EC50: 588 nM

SMILES: COc1cc(C(=O)O)c(NC(=O)c2ccc(-n3ccnc3)nn2)cc1F [Compound 170]
- EC50: 11000 nM

SMILES: Cc1cc2nc(-c3ccc(-n4ccnc4)nn3)oc(=O)c2cc1C [Compound 9]
- EC50: 163 nM

SMILES: CCOC(=O)C1=C(NC(=O)c2ccc(-n3ccnc3)nn2)COCC1 [Compound 129]
- EC50: 10700 nM

SMILES: COC(=O)c1cc(NC(=O)c2ccc(-n3ccnc3)nn2)cc(F)c1F [Compound 10]
- EC50: 468 nM

SMILES: COC(=O)c1nc(OC)ncc1NC(=O)c1ccc(-n2ccnc2)nn1 [Compound 71]
- EC50: 1660 nM

SMILES: COC(=O)c1cc(Cl)c(Cl)cc1NC(=O)c1ccc(-n2ccnc2)nn1 [Compound 34]
- EC50: 72.6 nM

SMILES: Cc1c(F)ccc2nc(-c3ccc(-n4ccnc4)nn3)oc(=O)c12 [Compound 133]
- EC50: 4170 nM

SMILES: NC(=O)c1cc(Cl)c(Cl)cc1NC(=O)c1ccc(-n2ccnc2)nn1 [Compound 138]
- EC50: > 50000 nM

SMILES: COC(=O)c1nn(C)cc1NC(=O)c1ccc(-n2ccnc2)nn1 [Compound 119]
- EC50: 5890 nM

SMILES: COC(=O)c1c(Cl)cc(F)cc1NC(=O)c1ccc(-n2ccnc2)nn1 [Compound 100]
- EC50: 10200 nM

SMILES: O=c1oc(-c2ccc(-n3ccnc3)nn2)nc2ccc(F)c(F)c12 [Compound 132]
- EC50: 4280 nM

SMILES: O=c1oc(-c2ccc(-n3ccnc3)nn2)nc2c1COCC2 [Compound 168]
- EC50: 11300 nM

SMILES: COC(=O)c1nc(Br)c(F)cc1NC(=O)c1ccc(-n2ccnc2)nn1 [Compound 43]
- EC50: 142 nM

SMILES: O=c1oc(-c2ccc(-n3ccnc3)nn2)nc2cc(Cl)c(F)cc12 [Compound 36]
- EC50: 40.3 nM

SMILES: COC(=O)c1ccc(F)cc1NC(=O)c1ccc(-n2ccnc2)nn1 [Compound 16]
- EC50: 684 nM

SMILES: COC(=O)c1ccc(C#N)cc1NC(=O)c1ccc(-n2ccnc2)nn1 [Compound 12]
- EC50: 159 nM

SMILES: COC(=O)c1ccccc1NC(=O)c1ccc(-n2ccnc2)nn1 [Compound 162]
- EC50: 956 nM

SMILES: Cc1cc(C(=O)O)c(NC(=O)c2ccc(-n3ccnc3)nn2)cc1F [Compound 172]
- EC50: 1010 nM

SMILES: CCOC(=O)C1=C(NC(=O)c2ccc(-n3ccnc3)nn2)CCC(F)(F)C1 [Compound 131]
- EC50: 3480 nM

SMILES: Cc1cc(NC(=O)c2ccc(-n3ccnc3)nn2)c(C(=O)O)cc1F [Compound 81]
- EC50: 2740 nM

SMILES: O=c1oc(-c2ccc(-n3ccnc3)nn2)nc2cc3c(cc12)OC(F)(F)O3 [Compound 141]
- EC50: > 50000 nM
